Source: patent US8349835B2, “Aromatic ring fused triazine derivatives and uses thereof” (Shenyang Pharmaceutical University, priority 2008, dated 2013)

Assays:
[1] = test system: chorioallantoic membrane vessels; test: Activity test by chick chorioallantoic membrane method; assay type: in vivo; settings: 5 uL medicine on cellulose membrane, chick embryo, 2 days
Protocol: After the shell membrane became wet, tore it open with ophthalmological tweezers so to expose the chorioallantoic membrane. • 6) Added 5 uL of selected medicine to a 0.5×0.5 cm cellulose membrane sterilized by high pressure, then set the membrane on the part of the chorioallantoic membrane with fewer vessels • 7) Closed the window, and put the embryos back into the hatch box to hatch for 2 days. • 8) Opened the transparent tape, and then opened the mixed cellulose membrane lightly with a tweezers. Measured the avascular area and took photographs.

[2] = test system: Microvascular Endothelial Cells (MVEC); test: MTT growth inhibition of MVEC; assay type: cell-based; settings: Endothelial cell, 96 h, 4 days culture with drug, read-out: IG50 on inhibiting growth of MVEC
Protocol: In Vitro Anti-Tumor Activity Test
Put cell suspension into centrifugal tubes with a pipette under sterile conditions, then the cell suspension was centrifuged for 3 minutes at 1300 rpm. Discarded the supernatant lightly and added fresh culture medium. Mixed the cells by pipetting, then transferred the cells into culture flasks, and put them into the CO2 incubator. Changed the culture medium once after 24 hours.
Human prostate cancer cells (DU145, PC-3) were cultured in a medium containing RPMI1640 basic medium supplemented with 10% heat-inactivated FBS, 100 IU/mL penicillin, 100 μg/mL streptomycin and 1 mmol/L L-glutamine. Human breast carcinoma cells (T47D, MDA-MB231) were cultured in a medium containing RPM11640 basic medium supplemented with 10% heat-inactivated FBS, 5 μg/mL insulin, 100 IU/mL penicillin, 100 μg/mL streptomycin and 1 mmol/L L-glutamine. Human breast carcinoma cells (MCF-7) were cultured in a medium containing DMEM basic medium supplemented with 10% heat-inactivated FBS, 5 μg/mL insulin, 100 IU/mL penicillin, 100 μg/mL streptomycin and […]. Murine Lewis lung cancer cells (LL/2), murine melanoma cells (B16FD) and Microvascular Endothelial Cells (MVEC) were cultured in a medium containing DMEM basic medium supplemented with 10% heat-inactivated FBS, 4.5 g/L glucose, 1.5 g/L NaHCO3, 100 IU/mL penicillin, 100 μg/mL streptomycin and 4 mmol/L L-glutamine. All these cell lines were incubated at 37° C. biochemical incubator with 5% CO2 saturated humidity.
After resuscitation, the cells were passed for 2-3 generations till they became stable, then they were used for the experiments. Each passage was based on the standard that all cells were spread over the bottoms of culture flasks.
Cells were digested off from the bottoms of culture flasks with trypsin (0.25%). The cell dissociation buffer was transferred into centrifuge tubes, added medium to stop the digestion, and centrifuged for 3 minutes at 1300 rpm. Discarded the supernatant lightly and added fresh culture medium (5 mL). Mixed the cells by pipetting, then added 10 μL of the cell suspension into the cell counting plate, and adjusted the cell concentration to 2×10^4 cells/mL. Added 100 μL of the cell suspension to all wells on the 96 well plates, except A1 well as the blank control. Put the plates into the biochemical incubator for 24 hours and to make sure the cells grew along the walls.
The drugs were dissolved in 80 mmol/L DMSO first, and then diluted the drugs with ethanol to 8 mmol/L. The solution was further diluted with the culture medium to different concentrations as 160 μmol/L, 120 μmol/L, 80 μmol/L, 40 μmol/L, 20 μmol/L and 10 μmol/L. Added 100 μL of the drug solution to each well on the 96 well plates. Therefore, the final concentrations of the drugs that were added to the cells were 80 μmol/L, 40 μmol/L, 20 μmol/L, 10 μmol/L and 5 μmol/L, and each concentration were repeated in three parallel wells. Put the culture plates into the biochemical incubator to culture continuously for 4 days.
Added 50 μL MTT liquids (2 mg/mL) into each well, put the culture plates into the biochemical incubator for 4 h, discarded MTT liquids (TCC), added 200 μL DMSO, then oscillated for 10 minutes on the magnetic oscillator to make sure that the survived cells and the reaction product of MTT were fully dissolved. Detected and recorded the absorbance (OD) values of each well at the wavelength of 570 nm using the microplate reader. The OD values of cells without tested drugs were used as control. The cell growth inhibition rates under each drug concentration were calculated by the following formula. […] Inhibition rate of growth(%)=(1−The absorbance(OD)of cells with tested drugs/The absorbance(OD)of the blank control group)×100%
The absorbance (OD) of cells with tested drugs: OD value is measured with the test drugs.
The absorbance (OD) of the blank control group: OD value is measured without the test drugs. […]

[3] = test system: Rat aortic ring; test: Rat Aortic Ring Assay; assay type: cell-based; settings: for Rat Aortic Ring Assay (10 ug/ml), result in words: observed on the sixth day; for inhibition at 10 µg/mL: Rattus norvegicus, 10 ug/ml, compared with blank control, sixth day
Summary of the method: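 1 mm abdominal aortic rings from 6-week-old SD animals embedded in Matrigel, cultured in DMEM/10% FBS with compound at various concentrations (≥3 wells), medium and compound renewed day 3. Microvessel area imaged on day 6 (×100, 3 random rings); inhibition rate scored: ⋆<30-60%, ⋆⋆60-90%, ⋆⋆⋆>90%.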

[4] = biological target: VEGFR-2 (Homo sapiens, UniProt P35968); test: VEGFR-2 inhibition rate test (kinase assay kit, colorimetric ELISA); settings: concentration not given
Sequence of VEGFR-2 (P35968 20-1356): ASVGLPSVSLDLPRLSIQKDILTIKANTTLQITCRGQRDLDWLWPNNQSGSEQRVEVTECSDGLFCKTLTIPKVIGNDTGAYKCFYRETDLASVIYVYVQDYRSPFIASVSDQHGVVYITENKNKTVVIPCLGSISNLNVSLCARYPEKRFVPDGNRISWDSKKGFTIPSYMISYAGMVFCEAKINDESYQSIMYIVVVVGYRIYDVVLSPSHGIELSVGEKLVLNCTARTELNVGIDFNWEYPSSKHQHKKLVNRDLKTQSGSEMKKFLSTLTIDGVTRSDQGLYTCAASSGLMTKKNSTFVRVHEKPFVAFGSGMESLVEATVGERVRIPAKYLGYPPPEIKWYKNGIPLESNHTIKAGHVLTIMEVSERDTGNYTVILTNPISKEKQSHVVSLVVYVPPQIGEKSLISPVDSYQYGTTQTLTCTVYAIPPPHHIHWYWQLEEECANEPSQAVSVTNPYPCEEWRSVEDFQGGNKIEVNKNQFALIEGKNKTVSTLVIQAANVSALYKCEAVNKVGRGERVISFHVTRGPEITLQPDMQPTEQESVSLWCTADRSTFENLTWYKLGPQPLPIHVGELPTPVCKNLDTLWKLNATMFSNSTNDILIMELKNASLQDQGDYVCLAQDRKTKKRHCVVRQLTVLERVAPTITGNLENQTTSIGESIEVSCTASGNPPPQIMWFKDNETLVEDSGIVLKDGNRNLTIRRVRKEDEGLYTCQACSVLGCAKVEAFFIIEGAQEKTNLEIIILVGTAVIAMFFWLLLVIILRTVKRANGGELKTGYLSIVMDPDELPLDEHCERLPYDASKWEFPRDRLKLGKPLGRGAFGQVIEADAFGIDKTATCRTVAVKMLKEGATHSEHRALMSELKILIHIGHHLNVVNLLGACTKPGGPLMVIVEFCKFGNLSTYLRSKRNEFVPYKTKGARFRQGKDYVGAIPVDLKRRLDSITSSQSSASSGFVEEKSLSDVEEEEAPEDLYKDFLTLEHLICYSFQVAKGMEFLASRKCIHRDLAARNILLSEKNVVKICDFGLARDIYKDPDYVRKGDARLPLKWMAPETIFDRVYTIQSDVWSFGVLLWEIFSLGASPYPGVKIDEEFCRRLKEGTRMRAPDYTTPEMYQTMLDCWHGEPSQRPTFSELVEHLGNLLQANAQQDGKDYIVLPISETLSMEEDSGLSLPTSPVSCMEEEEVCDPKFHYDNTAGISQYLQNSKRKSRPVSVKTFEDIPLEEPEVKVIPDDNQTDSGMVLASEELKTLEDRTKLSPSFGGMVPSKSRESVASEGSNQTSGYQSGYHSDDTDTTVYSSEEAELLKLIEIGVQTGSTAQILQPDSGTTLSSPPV

Kinase inhibition rate (VEGFR-2) [4]	Compound	The inhibitory effect on the growth of chorioallantoic membrane vessels [1]	IC50 [2]	Rat Aortic Ring Assay (10 ug/ml), result in words [3]	inhibition at 10 µg/mL [3]
–	Fc1ccc(Nc2nnnc3ccc(Cl)nc23)cc1C(F)(F)F [Example 90, 6-chloro-4-(3-trifluoromethyl-4-fluoroanilino)pyrido[3,2-d][1,2,3]-triazine]	One exhibits no inhibition, and embryo of the other sample is dead.	10.8 µM	–	–
9.35	COc1cc2c(Nc3ccc(F)cc3)nnnc2cc1OCCCCl [Example 76, 6-methoxy-7-chloropropoxy-4-(4-fluoroanilino)-benzo[d][1,2,3]triazine]	The vessels become rare at the zone covered by paper.	23.1 µM	No significant inhibition	–
–	CCOc1cc2nnnc(Nc3cccc(OC(F)(F)F)c3)c2cc1OC [Example 36, 6-methoxy-7-ethoxy-4-(3-trifluoromethoxyanilino)-1,2,3-benzotriazine]	One sample exhibits no vascular growth at the zone covered by paper.	23.3 µM	Almost complete inhibition (10 μg/mL)	–
–	Clc1ccc2nnnc(Nc3cccc(Br)c3)c2n1 [Example 92, 6-chloro-4-(3-bromoanilino)-pyrido[3,2-d][1,2,3]triazine]	One of the two samples exhibits significant vascular inhibition.	7.24 µM	–	> 50%
–	CCCCOc1cc2nnnc(Nc3ccc(F)c(C(F)(F)F)c3)c2cc1OC [Example 23, 6-methoxy-7-n-butoxy-4-(3-trifluoromethyl-4-fluoroanilino)-benzo[d][1,2,3]triazine]	The vessels covered by paper become thinner and fewer.	16.1 µM	Cell morphology was similar to D10, and cells were linear.	–
–	CCCCCOc1cc2nnnc(Nc3cc(F)cc(F)c3)c2cc1OC [Example 47, 6-methoxy-7-pentyloxy-4-(3,5-difluoroanilino)-benzo[d][1,2,3]triazine]	The vessels in the paper covered zone become fewer,	27.9 µM	No significant inhibition	–
0.26	COc1cc2c(Nc3cccc(C(F)(F)F)c3)nnnc2cc1OCCCCl [Example 67, 6-methoxy-7-chloropropoxy-4-(3-trifluoromethylanilino)-benzo[d][1,2,3]triazine]	The embryo is dead.	21.4 µM	–	> 50%
11.22	CCCCCOc1cc2nnnc(Nc3cccc(OC(F)(F)F)c3)c2cc1OC [Example 53, 6-methoxy-7-pentyloxy-4-(3-trifluoromethoxyanilino)-benzo[d][1,2,3]triazine]	Both of the samples exhibit inhibition ring at the central part of the paper,	38 µM	No significant inhibition	–
5.27	Fc1ccc(Nc2nnnc3ccc(Cl)nc23)cc1 [Example 93, 6-chloro-4-(4-fluoroanilino)pyrido[3,2-d][1,2,3]triazine]	One of the two samples exhibits death of the embryo, and the other exhibits	11.7 µM	–	–
−18.71	CCCCCOc1cc2nnnc(Nc3ccc(C(F)(F)F)cc3)c2cc1OC [Example 51, 6-methoxy-7-pentyloxy-4-(4-trifluoromethylanilino)-benzo[d][1,2,3]triazine]	The samples exhibit significant inhibition ring.	–	No significant inhibition	–
18.10	COc1cc2c(Nc3ccc(Br)c(F)c3)nnnc2cc1OCCCCl [Example 62, 6-methoxy-7-chloropropoxy-4-(3-fluoro-4-bromoanilino)-benzo[1,2,3]triazine]	The embryo is dead.	–	No significant inhibition	–
19.78	Fc1ccccc1Nc1nnnc2ccccc12 [Example 3, 4-(2-fluoroanilino)-benzo[d][1,2,3]triazine]	Significant inhibition in two of three samples,	–	No significant inhibition	–
–	CCOc1cc2nnnc(Nc3ccc(F)c(C(F)(F)F)c3)c2cc1OC [Example 40, 6-methoxy-7-ethoxy-4-(3-trifluoromethyl-4-fluoroanilino)-benzo[d][1,2,3]triazine]	One of the two samples exhibits inhibition	31.7 µM	No significant inhibition	–

Compound	Kinase inhibition rate (VEGFR-2) [4]	The inhibitory effect on the growth of chorioallantoic membrane vessels [1]	IC50 [2]	Rat Aortic Ring Assay (10 ug/ml), result in words [3]	inhibition at 10 µg/mL [3]
CCCCOc1cc2nnnc(Nc3ccc(F)c(Cl)c3)c2cc1OC [Example 22, 6-methoxy-7-n-butoxy-4-(3-chloro-4-fluoroanilino)-benzo[d][1,2,3]triazine]	0.80	The vessels are fractured at the central part that is covered by paper.	17.4 µM	Cell proliferation and migration were affected. Endothelial cell	–
CCCCOc1cc2nnnc(Nc3cccc(OC(F)(F)F)c3)c2cc1OC [Example 19, 6-methoxy-7-n-butoxy-4-(3-trifluoromethoxyanilino)-benzo[d][1,2,3]triazine]	−56.68	Vessels are broken in one of two samples,	–	No significant inhibition compared with the blank control.	–
CCCCOc1cc2nnnc(Nc3cccc(Cl)c3)c2cc1OC [Example 21, 6-methoxy-7-n-butoxy-4-(3-chloroanilino)-benzo[d][1,2,3]triazine]	2.40	The vessels covered by paper become thinner, and another embryo is dead.	–	No significant inhibition	–
